{"source": "patent US20250066502A1", "about": "“MEDICAMENT FOR TREATMENT AND/OR PREVENTION OF CANCER” (TORAY INDUSTRIES, INC., priority 2021, published 2025)", "type_in_all_cases": "cell-based", "key": {"[1]": {"tested_on": "human lung cancer cell line A549", "test": "THP-1-mediated antibody-dependent phagocytic activity against A549", "conditions": "THP-1 coculture 2.5 hours", "protocol": "(§1) Specifically, in each combination test group (a romidepsin combination test group, a panobinostat combination test group, and a cisplatin combination test group), the indicated drug used in combination was applied to human cancer cells, and then the cancer cells were cocultured with human monocytic cells (THP-1) in the presence of the anti-CAPRIN-1 antibody, and the antibody-mediated phagocytic activity against the cancer cells by THP-1 was evaluated. […] The concentration of the drug used in combination was set to a concentration that decreased the proliferation rate of the cancer cells by about half at the completion of culture. As a control, a test group without a drug used in combination was established. […] Further, dead cells were stained with propidium iodide (PI) (final concentration: 0.1 μg/mL), followed by the measurement of fluorescence from the cells by flow cytometry. PI-positive dead cells were excluded from analysis. The human monocytic cells THP-1 recognize an antibody bound onto cancer cells and phagocytize the cancer cells. At that time, if the cancer cells have been stained with calcein-AM, the monocytic cells ingesting the cancer cells by phagocytosis also become positive to calcein-AM. Thus, the phagocytic activity in this evaluation system was calculated as the ratio (%) of APC-positive/calcein-AM-positive cells to the whole calcein-AM-positive population."}, "[2]": {"tested_on": "human prostate cancer cell line DU145", "test": "THP-1-mediated antibody-dependent phagocytic activity against DU145", "conditions": "THP-1 coculture 2.5 hours", "protocol": "as §1"}, "[3]": {"tested_on": "human colon cancer cell line HCT116", "test": "THP-1-mediated antibody-dependent phagocytic activity against HCT116", "conditions": "panobinostat combination test group (10 nM, 2 days) with anti-CAPRIN-1 antibody, THP-1 coculture 2.5 hours", "protocol": "as §1"}, "[4]": {"tested_on": "human breast cancer cell line MDA-MB-231", "test": "THP-1-mediated antibody-dependent phagocytic activity against MDA-MB-231", "conditions": "panobinostat combination test group (30 nM, 2 days) with anti-CAPRIN-1 antibody, THP-1 coculture 1 hour", "protocol": "(§2) Specifically, in each combination test group (a romidepsin combination test group and a panobinostat combination test group), the indicated drug used in combination was applied to human cancer cells, and then the cancer cells were cocultured with human monocytic cells (THP-1) in the presence of the anti-CAPRIN-1 antibody, and the antibody-mediated phagocytic activity against the cancer cells by THP-1 was evaluated. […] As a control, a test group without a drug used in combination was established. […] Further, dead cells were stained with propidium iodide (PI) (final concentration: 0.1 μg/mL), followed by the measurement of fluorescence from the cells by flow cytometry. PI-positive dead cells were excluded from analysis. The human monocytic cells THP-1 recognize an antibody bound onto cancer cells and phagocytize the cancer cells. At that time, if the cancer cells have been stained with calcein-AM, the monocytic cells ingesting the cancer cells by phagocytosis also become positive to calcein-AM. Thus, the phagocytic activity in this evaluation system was calculated as the ratio (%) of APC-positive/calcein-AM-positive cells to the whole calcein-AM-positive population."}, "[5]": {"tested_on": "human ovarian cancer cell line TOV-21G", "test": "THP-1-mediated antibody-dependent phagocytic activity against TOV-21G", "conditions": "panobinostat combination test group (30 nM, 2 days) with anti-CAPRIN-1 antibody, THP-1 coculture 1 hour", "protocol": "as §2"}, "[6]": {"tested_on": "human bile duct cancer cell line KKU-100", "test": "THP-1-mediated antibody-dependent phagocytic activity against KKU-100", "conditions": "romidepsin combination test group (2 nM, 2 days) with anti-CAPRIN-1 antibody, THP-1 coculture 1 hour", "protocol": "as §2"}, "[7]": {"tested_on": "human uterus cancer cell line MFE-296", "test": "THP-1-mediated antibody-dependent phagocytic activity against MFE-296", "conditions": "romidepsin combination test group (20 nM, 2 days) with anti-CAPRIN-1 antibody, THP-1 coculture 1 hour", "protocol": "as §2"}, "[8]": {"conditions": "panobinostat combination test group (10 nM, 2 days) with anti-CAPRIN-1 antibody"}, "[9]": {"conditions": "romidepsin combination test group (1 nM, 2 days) with anti-CAPRIN-1 antibody"}}}
{"smiles": "N.N.[Cl][Pt][Cl]", "note": "[cisplatin]", "values": [{"measurement": "phagocytic activity against cancer cells", "setting": "[1]; cisplatin combination test group (20 μM, 2 days) with anti-CAPRIN-1 antibody", "result": 13, "unit": "%"}]}
{"smiles": "Cc1[nH]c2ccccc2c1CCNCc1ccc(/C=C/C(=O)NO)cc1", "note": "[panobinostat, (2E)-N-Hydroxy-3-[4-({[2-(2-methyl-TH-indol-3-yl)ethyl]amino}methyl)phenyl]prop-2-enamide]", "values": [{"measurement": "phagocytic activity against cancer cells", "setting": "[1]; [8]", "result": 15, "unit": "%"}, {"measurement": "phagocytic activity against cancer cells", "setting": "[2]; [8]", "result": 8, "unit": "%"}, {"measurement": "phagocytic activity against cancer cells", "setting": "[3]", "result": 32, "unit": "%"}, {"measurement": "phagocytic activity against cancer cells", "setting": "[4]", "result": 41, "unit": "%"}, {"measurement": "phagocytic activity against cancer cells", "setting": "[5]", "result": 81, "unit": "%"}]}
{"smiles": "C/C=C1\\NC(=O)[C@H]2CSSCC/C=C/[C@H](CC(=O)N[C@H](C(C)C)C(=O)N2)OC(=O)[C@H](C(C)C)NC1=O", "note": "[romidepsin, (1S,4S,10S,16E,21R)-7-[(2Z)-ethylidene]-4,21-bis(1-methylethyl)-2-oxa-12,13-dithia-5,8,20,23-tetraazabicyclo[8.7.6]tricos-16-ene-3,6,9,19,22-pentone]", "values": [{"measurement": "phagocytic activity against cancer cells", "setting": "[1]; [9]", "result": 29, "unit": "%"}, {"measurement": "phagocytic activity against cancer cells", "setting": "[2]; [9]", "result": 8, "unit": "%"}, {"measurement": "phagocytic activity against cancer cells", "setting": "[6]", "result": "≥ 14", "unit": "%"}, {"measurement": "phagocytic activity against cancer cells", "setting": "[7]", "result": "≥ 27", "unit": "%"}]}
